# According to patent US4451485A, “Treatment of cardio-vascular diseases with 3-(2,2,2-trimethylhydrazinium) propionate dihydrate” (Institu Organicheskogo Sinteza Akademii Nauk Latviiskoi SSR, priority 1981, dated 1984):
# Columns and labels:
# [1] = Variation of arrhythmogenic and lethal doses of CaCl2 in mice; type: in vivo, white mice
# Procedure: Thus, the effect of the preparation according to the present invention has been studied relative to the variation of arrhythmogenic and lethal doses of calcium chloride. An experiment was carried out on white mice of both sexes weighing 19-28 g which were narcotized by urethane and an ECG was remetered in transthoracic lead. A 2% solution of calcium chloride was administered to the test animals into the tail vein at a constant rate (0.1 ml for 15 seconds). The average dose of calcium chloride causing the appearance of arrhythmia and heart arrest was determined. In the test groups, the studied compounds were administered 45, 60, 120, 180 and 240 minutes before the beginning of administration of calcium chloride (Table 1).
# Variation of arrthythmogenic and lethal doses of CaCl2
# with time after administration of the studied
# pharmaceutical compositions in experiments on mice.
# in vivo = test: in vivo; set-up: species or system white mice; details: white mice
# [2] = Variation of the arrhythmogenic dose of Strophanthin G in rabbits; type: in vivo
# Procedure: The effect of the preparation according to the present invention on the variation of the arrhythmogenic dose of Strophanthin G was studied in experiments on rabbits of both sexes with a mass of […] administered with Strophanthin G at a dose of 60 μg/kg into the marginal auricular vein and, after every 5-10 minutes, at a dose of 5-10 μg/kg until the appearance of a stable ventricular extrasystole. In the test groups 20-30 minutes before administration of the glycoside a solution of 3-(2,2,2-trimethylhydrazinium)propionate was prophylactically administered intravenously. The ECG was recorded in II standard lead.
# At a further increase of the dose to the preparation to the present invention, its protective effect was increased too.
# [3] = Therapeutic effect on Strophanthin G arrhythmia in rabbits; type: in vivo
# Procedure: To investigate the therapeutic effect of the preparation according to the present invention relative to the Strophanthin arrhythmia, another series of experiments was carried out. Strophanthin was intravenously administered to rabbits of both sexes with a mass of 3.0 to 3.8 kg at a general dose of 80 μg/kg which caused arrhythmia within 40-60 minutes. The test preparation was intravenously administered at the background of arrhythmia in the test group.
# (§1) After the administration of the preparation at a dose of 5 mg/kg the regular synusal rhythm was retained for 12±5 minutes on the average, whereafter arrhythmia was gradually renewed, but it could be again eliminated by a repeated administration of the preparation at a dose of 2-5 mg/kg. In such cases the sinusal rhythm was retained for 15 to 30 minutes and in the majority of tests arrhythmia never renewed. Furthermore, an experiment was carried out on narcotized guinea pigs with a mass of 600-710 g to which Strophanthin -K was administered into the femoral vein at a total dose of 500 μg/kg.
# [4] = Effect on Strophanthin K arrhythmia in narcotized guinea pigs (500 μg/kg); type: in vivo
# Procedure: as §1
# The preparation based on 3-(2,2,2-trimethylhydrazonium)propionate was intravenously administered against the background of arrhythmia in the test group.
# The graph illustrates the recording of ECG of a guinea pig.
# The effect of compound I on Strophanthin arrhythmia in guinea pigs.
# [5] = Strophanthin arrhythmia in guinea pigs (450 μg/kg); type: in vivo
# Procedure: As the third model of arrhythmia, there was used strophanthin arrhythmia in guinea pigs. […] Against the background of arrhythmia the test preparations were administered intravenously.
# [6] = Vessel wall irritation and allergenic capacity; type: in vivo
# [7] = Embryotoxic and teratogenic effects in rats; type: in vivo, white rats; details: up to 10,000 mg/kg perorally, any day of pregnancy
# salmoneallae = test: Mutagenous activity on salmonellae; details: dihydrate
# [8] = Storage stability of pharmaceutical preparations; type: physicochemical
# [9] = Efficiency in extrasystolic arrhythmia in patients, intravenous; type: in vivo; details: 1 ml of a 40% solution intravenous; 7 patients
# Procedure: The antianginal and antiarrhythmic effects of the preparation according to the present invention were evaluated with the use of the injection pharmaceutical form of the preparation administered intravenously in an amount of 0.2 to 0.4 g based on the active ingredient.
# The preparation efficiency in the case of extrasystolic arrhythmia was studied on 7 patients.
# The intravenous administration of the preparation (1 ml of a 40% solution) arrested the rhythm disorder for 5-20 minutes.
# [10] = Physicochemical properties of the dihydrate (solubility, stability, hygroscopicity)
# [11] = 10 mg/kg intraperitoneal, 60 minutes
# [12] = 10 mg/kg intraperitoneal, 120 minutes
# [13] = 10 mg/kg intraperitoneal, 180 minutes
# [14] = 30 mg/kg intraperitoneal, 60 minutes
# [15] = 30 mg/kg intraperitoneal, 180 minutes
# [16] = 30 mg/kg intraperitoneal, 240 minutes
smiles,measurement,setting,value
"C[N+](C)(C)NCCC(=O)[O-] [3-(2,2,2-trimethylhydrazinium)propionate]",Arrhythmogenic dose of CaCl2,"[1]; 10 mg/kg intraperitoneal, 45 minutes before CaCl2, control 85",91.5 mg/kg
same,Lethal dose of CaCl2,"[1]; 10 mg/kg intraperitoneal, 45 minutes before CaCl2, control 100.9",101.7 mg/kg
same,Arrhythmogenic dose of CaCl2,[1]; [11],103.4 mg/kg
same,Lethal dose of CaCl2,[1]; [11],122.2 mg/kg
same,Arrhythmogenic dose of CaCl2,[1]; [12],111.9 mg/kg
same,Lethal dose of CaCl2,[1]; [12],130 mg/kg
same,Arrhythmogenic dose of CaCl2,[1]; [13],110.1 mg/kg
same,Lethal dose of CaCl2,[1]; [13],116 mg/kg
same,Arrhythmogenic dose of CaCl2,[1]; [14],106.7 mg/kg
same,Lethal dose of CaCl2,[1]; [14],122.8 mg/kg
same,Arrhythmogenic dose of CaCl2,[1]; [15],117.5 mg/kg
same,Lethal dose of CaCl2,[1]; [15],130.2 mg/kg
same,Arrhythmogenic dose of CaCl2,[1]; [16],121.9 mg/kg
same,Lethal dose of CaCl2,[1]; [16],128 mg/kg
same,Effect on arrhythmogenic and lethal doses of calcium chloride,[1]; single intraperitoneal administration,increases the arrhythmogenic and lethal doses of calcium chloride
same,LD50,"in vivo; mouse, in vivo, intravenous (Table 2)",4430 mg/kg
same,"Acute toxicity, LD50",in vivo; intravenous (Table 5),"4,430 mg/kg"
same,Duration of arrhythmia,"[2]; 10 mg/kg intravenously, control 20 ± 10",12 ± 6 min
same,Arrhythmogenic dose of Strophanthin,"[2]; 10 mg/kg intravenously, control 67 ± 9",0.09 ± 0.015 mg/kg
same,Arrhythmogenic dose of Strophanthin,[2]; 25 mg/kg intravenously,0.1 ± 0.01 mg/kg
same,Duration of arrhythmia,[2]; 25 mg/kg intravenously,8 ± 5 min
same,Arrhythmogenic dose of Strophanthin,[2]; 50 mg/kg intravenously,0.106 ± 0.012 mg/kg
same,Duration of arrhythmia,[2]; 50 mg/kg intravenously,15 ± 8 min
same,Duration regular sinus rhythm was retained,"[3]; 5 mg/kg, average",12 ± 5 min
same,Time to arrest of ventricular tachyarrhythmia,[3]; 1 to 3 mg/kg intravenous,1 to 2 min
same,Effect on ventricular tachyarrhythmia,"[3]; 1 to 3 mg/kg intravenous, majority of tests",temporarily arrested ventricular tachyarrhythmia
same,Changes in the complex QRST,[3]; intravenous,reduced
same,Duration sinusal rhythm was retained after repeated administration,"[3]; repeated administration, 2-5 mg/kg",15 to 30 min
same,Effect on atrio-ventricular block,"[4]; 2-5 mg/kg, timely administration, some cases",possible to also eliminate the atrio-ventricular block
same,Changes in the complex QRST and atrial fibrillation,[4]; intravenous,The changes in the complex QRST were reduced and the atrial fibrillation disappeared
same,Effect on ventricular arrhythmia,[4]; intravenous,temporarily arrested the ventricular arrhythmia
same,Time to arrest of ventricular arrhythmia,[4]; intravenous,2 to 3 min
same,ED50,"[5]; Cavia porcellus, intravenous, read-out: ED50, Strophanthin arrhythmia in guinea pigs",7.8 ± 2.3 mg/kg
same,"Antiarrhythmic index LD50/ED50, Strophanthin arrhythmia in guinea pigs","[5]; guinea pig, in vivo",568
same,Duration for which Strophanthin-induced arrhythmia is cut short / ECG improved,[5]; intravenous,5 to 20 min
same,Irritation of vessel walls,[6]; intravenous,does not cause irritation of vessel walls
same,Allergic responses,"[6]; intravenous and peroral, single or up to 30 days",nor does it cause allergic responses
same,Embryotoxic or teratogenic effects,[7],no embryotoxic or teratogenic effects
same,Mutagenous activity,salmoneallae,does not have mutagenous activity
same,Stability in storage,[8]; +5° C.,stable in storage at a temperature of +5 °C for at least two years
same,Stability of pharmaceutical forms for peroral administration,[8]; room temperature,stable for two years at room temperature
same,Duration of arrest of the rhythm disorder,[9],5 to 20 min
same,Hygroscopicity,[10]; dihydrate,slightly hygroscopic
same,Solubility in hot ethanol and methanol,[10]; dihydrate,well soluble
same,Solubility in nonpolar solvents,[10]; dihydrate,insoluble
same,Solubility in water,[10]; dihydrate,well soluble
same,Storage stability,"[10]; dihydrate, closed area, room temperature",2 years
same,Thermal stability,[10]; heating above 40° C.,loses crystallization water and slowly decomposes
